Measured values from ChEMBL document CHEMBL6177952, “Exploring chloro-isoxazole compounds inspired on tetrahydrofuran neolignans as promising antileishmanial agents” (Eur J Med Chem, 2025).

Assays:
[1] = Selectivity ratio of CC50 for cytotoxicity against BALB/c mouse Peritoneal macrophage assessed as inhibition of cell growth to IC50 for antileishmanial activity against leishmania amazonensis IFLA/BR/1967/PH8 promastigotes infected in mouse Peritoneal macrophage; format: toxicity, cell-based; conditions: peritoneal macrophages, read-out: Ratio CC50/IC50
[2] = Cytotoxicity against BALB/c mouse Peritoneal macrophage assessed as inhibition of cell growth incubated for 48 hrs by MTT assay; format: toxicity, cell-based; conditions: peritoneal macrophages
[3] = Selectivity ratio of CC50 for cytotoxicity against BALB/c mouse Peritoneal macrophage assessed as inhibition of cell growth to IC50 for antileishmanial activity against leishmania amazonensis IFLA/BR/1967/PH8 intracellular amastigote infected in mouse Peritoneal macrophage; format: toxicity, cell-based; conditions: peritoneal macrophages, read-out: Ratio CC50/IC50
Leishmania amazonensis [4] = test: Antileishmanial activity against leishmania amazonensis IFLA/BR/1967/PH8 promastigotes assessed as reduction in parasite growth measured for 72 hrs; format: functional, organism-based; conditions: IFLA/BR/1967/PH8, 72 h
Leishmania amazonensis [5] = test: Antileishmanial activity against leishmania amazonensis IFLA/BR/1967/PH8 intracellular amastigote infected in mouse Peritoneal macrophage incubated for 24 hrs; format: functional, organism-based; conditions: IFLA/BR/1967/PH8, Peritoneal macrophage
Leishmania amazonensis [6] = test: Antileishmanial activity against leishmania amazonensis IFLA/BR/1967/PH8 promastigotes infected in mouse Peritoneal macrophage incubated for 24 hrs; format: functional, organism-based; conditions: IFLA/BR/1967/PH8, Peritoneal macrophage
Leishmania amazonensis [7] = test: Antileishmanial activity against Leishmania amazonensis promastigotes; format: functional, organism-based
Leishmania amazonensis [8] = test: Antileishmanial activity against leishmania amazonensis IFLA/BR/1967/PH8 intracellular amastigotes infected in mouse Peritoneal macrophage assessed as reduction in parasite growth measured for 24 hrs; format: functional, organism-based; conditions: IFLA/BR/1967/PH8, Peritoneal macrophage
Leishmania amazonensis [9] = test: Antiparasitic activity against Leishmania amazonensis promastigotes incubated for 24 hrs; format: functional, organism-based
Leishmania amazonensis [10] = test: Potency index, ratio of pentamidine IC50 to test compound IC50 for antileishmanial activity against leishmania amazonensis IFLA/BR/1967/PH8 intracellular amastigote infected in mouse Peritoneal macrophage incubated for 24 hrs; format: functional
Leishmania amazonensis [11] = test: Antileishmanial activity against leishmania amazonensis infected in BALB/c mouse assessed as reduction parasite load in footpad; format: functional; parameters: scale not given: the % may be the effect or the level left
Leishmania amazonensis [12] = test: Antileishmanial activity against leishmania amazonensis assessed as reduction in parasite growth; format: functional, organism-based
[13] = Mutagenicity in Salmonella typhimurium TA100 assessed as number of revertant colonies per plate at 2.5 microg/ml in presence of S9 fraction by Ames test; format: toxicity, subcellular; conditions: salmonella enterica subsp. enterica serovar typhimurium, dose 2.5 µg/ml
[14] = Mutagenicity in Salmonella typhimurium TA98 assessed as number of revertant colonies per plate at 2.5 microg/ml in presence of S9 fraction by Ames test; format: toxicity, subcellular; conditions: salmonella enterica subsp. enterica serovar typhimurium, dose 2.5 µg/ml
Leishmania amazonensis [15] = test: Antileishmanial activity against leishmania amazonensis IFLA/BR/1967/PH8 amastigote measured for 72 hrs; format: functional, organism-based; conditions: IFLA/BR/1967/PH8, 72 h
Leishmania amazonensis [16] = test: Antileishmanial activity against Leishmania amazonensis promastigotes assessed as early apoptotic parasites at 10.4 uM incubated for 24 hrs by Annexin V/7-AAD staining based flow cytometry analysis relative to control; format: functional
Leishmania amazonensis [17] = test: Antileishmanial activity against Leishmania amazonensis promastigotes assessed as necrotic parasites at 10.4 uM incubated for 48 hrs by Annexin V/7-AAD staining based flow cytometry analysis relative to control; format: functional
Leishmania amazonensis [18] = test: Antileishmanial activity against Leishmania amazonensis promastigotes assessed as late apoptotic parasites at 10.4 uM incubated for 24 hrs by Annexin V/7-AAD staining based flow cytometry analysis relative to control; format: functional
Leishmania amazonensis [19] = test: Antileishmanial activity against Leishmania amazonensis promastigotes assessed as viable apoptotic parasites at 10.4 uM incubated for 72 hrs by Annexin V/7-AAD staining based flow cytometry analysis relative to control; format: functional
Leishmania amazonensis [20] = test: Antileishmanial activity against Leishmania amazonensis promastigotes assessed as early apoptotic parasites at 10.4 uM incubated for 72 hrs by Annexin V/7-AAD staining based flow cytometry analysis relative to control; format: functional
Leishmania amazonensis [21] = test: Antileishmanial activity against Leishmania amazonensis promastigotes assessed as necrotic parasites at 10.4 uM incubated for 72 hrs by Annexin V/7-AAD staining based flow cytometry analysis relative to control; format: functional
Leishmania amazonensis [22] = test: Antileishmanial activity against Leishmania amazonensis promastigotes assessed as viable apoptotic parasites at 10.4 uM incubated for 24 hrs by Annexin V/7-AAD staining based flow cytometry analysis relative to control; format: functional
Leishmania amazonensis [23] = test: Antileishmanial activity against Leishmania amazonensis promastigotes assessed as viable apoptotic parasites at 10.4 uM incubated for 48 hrs by Annexin V/7-AAD staining based flow cytometry analysis relative to control; format: functional
Leishmania amazonensis [24] = test: Antileishmanial activity against Leishmania amazonensis promastigotes assessed as early apoptotic parasites at 10.4 uM incubated for 48 hrs by Annexin V/7-AAD staining based flow cytometry analysis relative to control; format: functional
Leishmania amazonensis [25] = test: Antileishmanial activity against Leishmania amazonensis promastigotes assessed as late apoptotic parasites at 10.4 uM incubated for 72 hrs by Annexin V/7-AAD staining based flow cytometry analysis relative to control; format: functional
Leishmania amazonensis [26] = test: Antileishmanial activity against Leishmania amazonensis promastigotes assessed as necrotic parasites at 10.4 uM incubated for 24 hrs by Annexin V/7-AAD staining based flow cytometry analysis relative to control; format: functional
Leishmania amazonensis [27] = test: Antileishmanial activity against Leishmania amazonensis promastigotes assessed as late apoptotic parasites at 10.4 uM incubated for 48 hrs by Annexin V/7-AAD staining based flow cytometry analysis relative to control; format: functional
[28] = Mutagenicity in Salmonella typhimurium TA98 assessed as number of revertant colonies per plate at 10 microg/ml by Ames test; format: toxicity; conditions: salmonella enterica subsp. enterica serovar typhimurium; dose 10 µg/ml

| Structure (SMILES) | selectivity ratio [1] | CC50 at 48 h [2] [µM] | selectivity ratio [3] | IC50 (Leishmania amazonensis [5]) [µM] | IC50 (Leishmania amazonensis [6]) [µM] | also measured |
| --- | --- | --- | --- | --- | --- | --- |
| COc1cc(-n2cc(-c3ccc4c(c3)OCO4)nn2)cc(OC)c1OC | 1.9 | 23.5 | 1 | 23.4 | 12 | IC50 (Leishmania amazonensis [4]): 7.2 µM |
| COc1ccc(-n2cc(-c3cc(OC)c(OC)c(OC)c3)nn2)cc1OC |  |  |  |  |  | IC50 (Leishmania amazonensis [7]): 122 µM; IC50 (Leishmania amazonensis [8]): 122 µM |
| COc1cc(OC)cc(-c2cc(-c3cc(OC)c(OC)c(OC)c3Cl)on2)c1 | 2.6 | 82.6 | 11.3 | 7.3 | 31.2 |  |
| COc1cc(-c2cn(-c3cc(OC)c(OC)c(OC)c3)nn2)cc(OC)c1OC |  |  |  |  |  | IC50 (Leishmania amazonensis [9]): > 200 µM |
| COc1cc(-c2cc(-c3cc(OC)c(OC)c(OC)c3Cl)on2)cc(OC)c1OC | 0.07 | 2.7 | 0.2 | 12.7 | 33.8 |  |
| COc1ccc(-c2cc(-c3cc(OC)c(OC)c(OC)c3Cl)on2)cc1 | 1.3 | 60.7 | 4.9 | 12.5 | 45.8 |  |
| COc1cc(-c2cc(-c3ccc4c(c3)OCO4)no2)c(Cl)c(OC)c1OC | 0.3 | 33.7 | 3.3 | 10.3 | 103 | Ratio IC50 (Leishmania amazonensis [10]): <=7 |
| COc1ccc(-c2cn(-c3cc(OC)c(OC)c(OC)c3)nn2)cc1OC |  |  |  |  |  | IC50 (Leishmania amazonensis [7]): 194 µM |
| COc1ccc(-c2cc(-c3cc(OC)c(OC)c(OC)c3)on2)cc1OC |  |  | 21 | 1.6 |  | Activity (Leishmania amazonensis [11]): 98.5%; IC50 (Leishmania amazonensis [12]): 20.2 µM |
| COc1ccc(-c2cc(-c3cc(OC)c(OC)c(OC)c3Cl)on2)cc1OC | 0.5 | 47.2 | 4.1 | 11.4 | 91.8 |  |
| COc1ccc(-c2cc(-c3cc(OC)c(OC)c(OC)c3Cl)no2)cc1 | 1 | 9.6 | 0.8 | 10.9 | 9 |  |
| COc1cc(-c2cc(-c3cc(OC)c(OC)c(OC)c3)on2)cc(OC)c1OC |  |  |  |  |  | IC50 (Leishmania amazonensis [9]): 17.6 µM |
| N=C(N)c1ccc(OCCCCCOc2ccc(C(=N)N)cc2)cc1 [PENTAMIDINE] | 17.8 | 23.2 | 1.4 | 16.3 | 1.3 |  |
| Nc1ccc2cc3ccccc3cc2c1 [2-AMINOANTHRACENE] |  |  |  |  |  | revertant count [13]: 963 revertants/plate; Activity [14]: 231 revertants/plate |
| COc1cccc2c1C(=O)c1c(O)c3c(c(O)c1C2=O)C[C@@](O)(C(=O)CO)C[C@@H]3O[C@H]1C[C@H](N)[C@H](O)[C@H](C)O1 [DOXORUBICIN] |  | 2.4 |  |  |  |  |
| COc1cc(-c2cc(-c3ccc4c(c3)OCO4)no2)cc(OC)c1OC |  |  |  |  |  | IC50 (Leishmania amazonensis [15]): 3.3 µM |
| COc1cc(OC)cc(-c2cc(-c3cc(OC)c(OC)c(OC)c3Cl)no2)c1 | 0.4 | 28 | 1.5 | 19.3 | 71.5 |  |
| COc1ccc(-c2cc(-c3cc(OC)c(OC)c(OC)c3)no2)cc1OC |  |  |  |  |  | IC50 (Leishmania amazonensis [7]): 19.4 µM |
| COc1cc(-c2cc(-c3cc(OC)c(OC)c(OC)c3Cl)no2)cc(OC)c1OC | 0.1 | 7 | 0.3 | 21.8 | 74.4 |  |
| C[C@@H]1[C@H](O)[C@@H](C)/C=C/C=C/C=C/C=C/C=C/C=C/C=C/[C@H](O[C@@H]2O[C@H](C)[C@@H](O)[C@H](N)[C@@H]2O)C[C@@H]2O[C@](O)(C[C@@H](O)C[C@@H](O)[C@H](O)CC[C@@H](O)C[C@@H](O)CC(=O)O[C@H]1C)C[C@H](O)[C@H]2C(=O)O [AMPHOTERICIN B] |  | 12.8 |  | 2 | 10.4 | Activity (Leishmania amazonensis [16]): 0.6%; Activity (Leishmania amazonensis [17]): 0.6%; Activity (Leishmania amazonensis [18]): 0.3%; Activity (Leishmania amazonensis [19]): 95.1%; Activity (Leishmania amazonensis [20]): 0.8%; Activity (Leishmania amazonensis [21]): 2.5%; Activity (Leishmania amazonensis [22]): 98.7%; Activity (Leishmania amazonensis [23]): 97.1%; Activity (Leishmania amazonensis [24]): 1.6%; Activity (Leishmania amazonensis [25]): 1.5%; Activity (Leishmania amazonensis [26]): 0.3%; Activity (Leishmania amazonensis [27]): 0.6% |
| COc1ccc(-c2cc(-c3cc(OC)c(OC)c(OC)c3Cl)no2)cc1OC | 0.3 | 26.7 | 0.8 | 31.7 | 88 |  |
| Nc1ccc([N+](=O)[O-])cc1N |  |  |  |  |  | Activity [28]: 253 µg |
